The source of these data is patent EP4732841A1, “FOAM SCLEROSANT COMPOSITION, AND PREPARATION METHOD THEREFOR AND USE THEREOF” (Jenkem Technology Co., Ltd. (Beijing), priority 2023, dated 2025).

A short description of series [1]: Foam stability of polidocanol with single molecular weight (Tessari method). In kind it is physicochemical. As to conditions: for Foam coalescence time / Foam drainage time: 1% solution in 4% solution of ethanol in PBS, Tessari method, gas-to-liquid ratio 3:1; for foam formed after thorough mixing with air: 1% solutions mixed with air at a volume ratio of 1:3. The protocol: Samples of polidocanol with a single molecular weight (DD-PEG8-OH, DD-PEG9-OH, and DD-PEG10-OH prepared in Example 1) and a control (polidocanol in a mixture state containing different molecular weights, purchased from Siegfried Hameln GmbH, Germany, batch number OK13103) were separately weighed and prepared into 1% solutions using a 4% solution of ethanol in PBS. The polidocanol was foamed using the Tessari method, i.e., two 2.5 mL syringes were connected via a three-way tube and rapidly pushed and pulled back and forth at a gas-to-liquid ratio of 3:1 until foam formed. All foam was collected into one syringe, the volume was brought to 2 mL, and the foam state was observed while standing. The following parameters were recorded: foam drainage time, foam halflife time, and foam coalescence time.

The test system of series [2] is rabbit marginal ear vein. In words: Venous sclerosing effect in the rabbit marginal ear vein model. In kind it is in vivo. Particulars: maximum volume 0.25 mL, calculated on number of rabbit ears. The protocol: The rabbit marginal ear vein was used as an experimental model to compare the effects of adding different concentrations of sodium hyaluronate on the venous sclerosing effect of polidocanol. The specific method was as follows: (1) Domestic rabbits were anesthetized with xylazine (2-5 mg/kg, intramuscular injection). Subsequently, the hair on the ears was shaved, and the area was disinfected using a 0.5% chlorhexidine alcohol solution. (2) The Tessari method was used to foam the polidocanol with the addition of sodium hyaluronate, i.e., two 10 mL syringes were connected via a three-way tube and rapidly pushed and pulled back and forth at a certain gas-to-liquid ratio until foam was formed. (3) A disposable syringe was used to puncture the marginal vein, and the sclerosant was injected slowly, with a maximum volume of 0.25 mL. […]
In this example, 14 days after the injection of different types of polidocanol into some rabbit marginal ear veins, some blood vessels were occluded. […] All rabbit ear blood vessels were scored, with effective ones recorded as 1 and ineffective ones recorded as 0.
The calculation rule for the effective rate was as follows: effective rate = score of rabbit ears/total number of rabbit ears × 100% (calculated based on the number of rabbit ears).
All rabbit ear blood vessels were scored, with effective ones recorded as 1 and ineffective ones recorded as 0. […]

On to `CCCCCCCCCCCCOCCOCCOCCOCCOCCOCCOCCOCCO` [P8], for which, in series [1], the Foam coalescence time is on record as 13 min, the Foam drainage time is reported as 3 s and the “foam formed after thorough mixing with air” value is listed as “formed homogeneous foam”. Further, in series [1] (listed as P8 (1%)), the Foam coalescence time was determined as 13 m.

For the compound `CCCCCCCCCCCCOCCOCCOCCOCCOCCOCCOCCOCCOCCO` [P9], in series [2] (venous sclerosis 14 days after injection of foam into rabbit marginal ear veins), the “D14 effective rate (%)” value is on record as 91.67%. Also, the “D21 effective rate (%)” value in series [2] (venous sclerosis 21 days after injection of foam into rabbit marginal ear veins) is 83.33%.

With `CCCCCCCCCCCCOCCOCCOCCOCCOCCOCCOCCOCCOCCOCCO` [P10], in series [1], the Foam coalescence time was found to be 20 min, the Foam drainage time was 8 s and the “foam formed after thorough mixing with air” value is reported as “formed homogeneous foam”. For the same compound, the Foam coalescence time in series [1] (listed as P10 (1%)) amounted to 20 m.
